Reference: patent US11401271B2, “Fused heterocyclic compound, pyrazole-ring-containing fused heterocyclic compound, agricultural composition containing thereof, and method of using the composition” (SOUTH CHINA AGRICULTURAL UNIVERSITY, priority 2017, dated 2022)
Like-named read-outs stand apart in the source and are kept apart here.

Tests used:
Assay type in all cases: in vivo
Spodoptera exigua = experiment: whole plant or invertebrate; settings: Spodoptera exigua, 24 h, read-out: Spodoptera exigua Mortality (%) 500 ppm
Outline: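 Cabbage leaf discs dipped 5 s in 500 ppm compound (0.05% Tween-80 aqueous), air-dried, fed to about 35 2nd-instar larvae at 28° C, three replicates. Deaths counted at 24 h; mortality corrected against Tween-80 control.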

Solenopsis invicta = experiment: whole plant or invertebrate; settings: Solenopsis invicta, water test tube poison-feeding
Outline: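 Fire ants fed compound by water test-tube poison-feeding at 100 ppm in aqueous 0.05% Tween-80/5% honey (from 10 g/L DMSO stock), kept at 25 °C. Live and dead ants counted at 24 and 72 h; mortality (%) calculated relative to live ants in the untreated control.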

Bombyx mori L. = experiment: Toxicity test on 2nd-instar larvae of Bombyx mori L., leaf immersion feeding method; settings: 1000 ppm, 24 hours
Description: (1) Toxicity Test on 2nd-Instar Larvae of Bombyx mori L.
Bombyx mori L. is an important economic insect sensitive to pesticides in an agricultural ecosystem, and is also one of the non-target organisms of environmental ecology listed in pesticide registration of China. The 2nd-instar larvae of Bombyx mori L. were used as test objects and tested by using a leaf immersion feeding method.
Operation process: Samples were weighed accurately, and respectively added with 200 μL of dimethyl sulfoxide to prepare 10 g/L mother liquor which was diluted into a concentration of 1000 ppm with an aqueous solution containing 0.05% of Tween-80 during the test. Young cotyledons of mulberries were collected, washed and air-dried, immersed in a liquid medicine, taken out after 5 seconds, naturally air-dryed, and then transferred into a clean vessel. About 35 2nd -instar larvae of Bombyx mori L. were put into the vessel and fed at a constant temperature of 25° C. Each concentration was repeated 3 times, and an aqueous solution containing 0.05% of Tween-80 was used as a control group. After being treated for 24 hours, a number of dead Bombyx mori L. was counted, and a mortality (%) was calculated according to a formula that mortality (%)=(number of live larvae in the control group −number of treated live larvae)/number of live larvae in the control group * 100%.

Apis cernan = experiment: Toxicity test on adult worker bees of Apis cernan, small beaker method; settings: 500 ppm, 48 hours
Description: (2) Toxicity Test on Adult Worker Bees of Apis cernan.
Adult worker bees of Apis cernan having the same size were selected for test. The worker bees were collected from beekeeping boxes in the daystart of the test day and tested by using a small beaker method.
Operation process: A small amount of absorbent cotton was put into a 5 mL small beaker, 5 mL of a test liquid medicine (a concentration of 500 ppm) was dropped into the absorbent cotton, and stirred gently to make the absorbent cotton completely wet but not leached obviously, then the small beaker was put into a 500 mL large beaker, then 15 worker bees were put into the large beaker, and finally the large beaker was sealed with gauze. After treatment, the large beaker was placed in a dark room of an artificial climate box. After taking the medicine for 48 hours, a number of live and dead worker bees were investigated.

Plutella xylostella = experiment: whole plant or invertebrate; settings: Plutella xylostella, read-out: Plutella xylostella Mortality (%) 500 ppm
Outline: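 Cabbage leaf discs dipped 5 s in compound at 500 ppm (0.05% Tween-80 aqueous), air-dried, fed to about 35 2nd-instar larvae at 28° C., triplicate. Dead larvae counted after 24 h; mortality (%) corrected against Tween-80 control.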

Aphis craccivora = experiment: whole plant or invertebrate; settings: Aphis craccivora, 24 h, read-out: Aphis craccivora Mortality (%) 500 ppm
Outline: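 Wingless adults feeding on bean sprouts were dipped with the sprouts for 5 s in 500 ppm compound in aqueous 0.05% Tween-80, air-dried, then held at 23° C. Dead aphids counted after 24 h, triplicate, with 0.05% Tween-80 as control. Mortality (%) = (control live − treated live)/control live × 100.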

[1] = 24 h, read-out: Solenopsis invicta Mortality (%) 100 ppm 24 h, 100 ppm, 24 h
[2] = 72 h, read-out: Solenopsis invicta Mortality (%) 100 ppm 72 h, 100 ppm, 72 h

| Compound | mortality at 500 ppm (Spodoptera exigua) [%] | mortality at 100 ppm (Solenopsis invicta; [1]) [%] | mortality at 100 ppm (Solenopsis invicta; [2]) [%] | Toxicity determination Bombyx mori L. Mortality (%) (Bombyx mori L.) | Toxicity determination Apis cernan Mortality (%) (Apis cernan) | mortality at 500 ppm (Plutella xylostella) [%] | mortality at 500 ppm (Aphis craccivora) [%] |
| --- | --- | --- | --- | --- | --- | --- | --- |
| CS(=O)(=O)Nc1ccc2c(c1)-n1cc(C#N)c(C#N)c1NC2(C#N)C#N [Compound B10] | 95 | 30 | 90 | 3 | 3 | 100 | 100 |
| Nc1ccc2c(c1)-n1nc(C(F)(F)F)cc1NC2(C(F)(F)F)C(F)(F)F [Compound A10] | 100 | 20 | 87 | 15 | 12 | 86 | 100 |
| C=CC1(C(F)(F)F)Nc2cc(C#N)nn2-c2c(Cl)cc(C(F)(F)F)cc21 (centres unmarked) [Compound C3] | 100 | 24 | 100 | 12 | 10 | 100 | 100 |
| C=CC1(CCl)Nc2cc(C#N)nn2-c2c(Cl)cc(C(F)(F)F)cc21 (stereo not drawn) [Compound C1, 9-chloro-7-trifluoromethylphenyl-5-chloromethyl-5-vinyl-4,5-dihydropyrrole[1,5-α]quinazoline-2-cyano] | 100 | 20 | 100 | 7 | 7 | 89 | 100 |
| C=CC1(CCl)Nc2c([S+](C)[O-])c(C#N)nn2-c2c(Cl)cc(C(F)(F)F)cc21 (centres unmarked) [Compound C18] | 86 | 20 | 70 | 6 | 5 | 90 | 98 |
| CSc1nn2c(c1C(=O)N1CCN(C)CC1)NC(F)(C(F)(F)F)c1ccccc1-2 (centres unmarked) [Compound A30] | 100 | 40 | 100 | 8 | 8 | 100 | 100 |
| COc1ccc(-c2cn3c(c2C(C)=O)NC(C(N)=O)(C(N)=O)c2ccc([N+](=O)[O-])cc2-3)cc1 [Compound B4] | 100 | 20 | 88 | 0 | 0 | 86 | 100 |
| C=CC1Nc2c(-c3cc(C)oc3C)c(C#N)nn2-c2c(Cl)cc(C(F)(F)F)cc21 (centres unmarked) [Compound C50] | 86 | 26 | 86 | 5 | 2 | 81 | 90 |
| CC1(C)Nc2c(C#N)c(SCc3ccccc3)nn2-c2cnc(F)nc21 [Compound A46] | 100 | 20 | 87 | 7 | 2 | 86 | 100 |
| CNC(=O)Nc1c(C#N)nn2c1NC(C)(C)c1ccccc1-2 [Compound A19] | 100 | 20 | 100 | 7 | 5 | 100 | 100 |
| C=CC1(C=C)Nc2c(-c3cc(C)sc3C)c(CC)nn2-c2c(Cl)cc(C(F)(F)F)cc21 [Compound C62] | 85 | 27 | 100 | 10 | 11 | 80 | 97 |
